The source of these data is US20260092071A1, “COMPOUNDS AND COMPOSITIONS AS SMARCA2/4 DEGRADERS AND USES THEREOF” (REGENTS OF THE UNIVERSITY OF MICHIGAN, priority 2022, published 2026).

Structures are written as SMILES.

One assay has as its target SMARCA4 (Homo sapiens, UniProt P51532). The assay can be described thus: HiBiT assay for protein degradation, Hela SMARCA4-HiBiT cells (A series). The assay is classed as cell-based. The following applies: Hela SMARCA4-HiBiT cells, 24 hours treatment; for DC50: read-out: SMARC A4 Hela HiBit DC50; for Dmax: read-out: SMARC A4 Hela HiBit Dmax. Also on record: fuse HiBiT to the carboxy terminus of SMARCA2 (Promega CS302365) or SMARCA4 (Promega CS3023225); host or cells: HeLa (CRISPR/Cas9 HiBiT knock-in). In short, it runs like this:
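HeLa cells engineered by CRISPR/Cas9 to carry a HiBiT tag fused to the C-terminus of SMARCA4 (Promega CS3023225) were grown in DMEM supplemented with FBS and penicillin-streptomycin. After compound exposure, remaining SMARCA4 protein was quantified using the Nano-Glo® HiBiT Lytic Detection Assay (Promega N3050), and curves were fitted in GraphPad Prism.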
Background: HiBiT is a short tag that completes a luciferase, so light tracks the accessible tagged protein.

A further assay concerns the target SMARCA2 (Homo sapiens, UniProt P51531). The assay can be described thus: HiBiT assay for protein degradation, Hela SMARCA2-HiBiT cells (A series).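 For SMARC A2 Hela HiBit Dmax (%): 24 h compound treatment.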 The conditions noted are these: Hela SMARCA2-HiBiT cells, 24 hours treatment; for DC50: read-out: SMARC A2 Hela HiBit DC50; for Dmax: read-out: SMARC A2 Hela HiBit Dmax (%). Details: Hela cells were genetically modified via CRISPR/Cas9 to fuse HiBiT to the carboxy terminus of SMARCA2; host or cells: HeLa (CRISPR/Cas9 HiBiT knock-in). It is filed as cell-based. A digest of the protocol: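 HeLa cells engineered by CRISPR/Cas9 to carry a HiBiT tag fused to the C-terminus of SMARCA2 (Promega CS302365) were grown in DMEM supplemented with FBS and penicillin-streptomycin. After treatment, remaining SMARCA2 protein was quantified with the Nano-Glo® HiBiT Lytic Detection Assay (Promega N3050), and curves were fitted in GraphPad Prism.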

Sequence of SMARCA4 (P51532 whole entry, the tested form may be a part): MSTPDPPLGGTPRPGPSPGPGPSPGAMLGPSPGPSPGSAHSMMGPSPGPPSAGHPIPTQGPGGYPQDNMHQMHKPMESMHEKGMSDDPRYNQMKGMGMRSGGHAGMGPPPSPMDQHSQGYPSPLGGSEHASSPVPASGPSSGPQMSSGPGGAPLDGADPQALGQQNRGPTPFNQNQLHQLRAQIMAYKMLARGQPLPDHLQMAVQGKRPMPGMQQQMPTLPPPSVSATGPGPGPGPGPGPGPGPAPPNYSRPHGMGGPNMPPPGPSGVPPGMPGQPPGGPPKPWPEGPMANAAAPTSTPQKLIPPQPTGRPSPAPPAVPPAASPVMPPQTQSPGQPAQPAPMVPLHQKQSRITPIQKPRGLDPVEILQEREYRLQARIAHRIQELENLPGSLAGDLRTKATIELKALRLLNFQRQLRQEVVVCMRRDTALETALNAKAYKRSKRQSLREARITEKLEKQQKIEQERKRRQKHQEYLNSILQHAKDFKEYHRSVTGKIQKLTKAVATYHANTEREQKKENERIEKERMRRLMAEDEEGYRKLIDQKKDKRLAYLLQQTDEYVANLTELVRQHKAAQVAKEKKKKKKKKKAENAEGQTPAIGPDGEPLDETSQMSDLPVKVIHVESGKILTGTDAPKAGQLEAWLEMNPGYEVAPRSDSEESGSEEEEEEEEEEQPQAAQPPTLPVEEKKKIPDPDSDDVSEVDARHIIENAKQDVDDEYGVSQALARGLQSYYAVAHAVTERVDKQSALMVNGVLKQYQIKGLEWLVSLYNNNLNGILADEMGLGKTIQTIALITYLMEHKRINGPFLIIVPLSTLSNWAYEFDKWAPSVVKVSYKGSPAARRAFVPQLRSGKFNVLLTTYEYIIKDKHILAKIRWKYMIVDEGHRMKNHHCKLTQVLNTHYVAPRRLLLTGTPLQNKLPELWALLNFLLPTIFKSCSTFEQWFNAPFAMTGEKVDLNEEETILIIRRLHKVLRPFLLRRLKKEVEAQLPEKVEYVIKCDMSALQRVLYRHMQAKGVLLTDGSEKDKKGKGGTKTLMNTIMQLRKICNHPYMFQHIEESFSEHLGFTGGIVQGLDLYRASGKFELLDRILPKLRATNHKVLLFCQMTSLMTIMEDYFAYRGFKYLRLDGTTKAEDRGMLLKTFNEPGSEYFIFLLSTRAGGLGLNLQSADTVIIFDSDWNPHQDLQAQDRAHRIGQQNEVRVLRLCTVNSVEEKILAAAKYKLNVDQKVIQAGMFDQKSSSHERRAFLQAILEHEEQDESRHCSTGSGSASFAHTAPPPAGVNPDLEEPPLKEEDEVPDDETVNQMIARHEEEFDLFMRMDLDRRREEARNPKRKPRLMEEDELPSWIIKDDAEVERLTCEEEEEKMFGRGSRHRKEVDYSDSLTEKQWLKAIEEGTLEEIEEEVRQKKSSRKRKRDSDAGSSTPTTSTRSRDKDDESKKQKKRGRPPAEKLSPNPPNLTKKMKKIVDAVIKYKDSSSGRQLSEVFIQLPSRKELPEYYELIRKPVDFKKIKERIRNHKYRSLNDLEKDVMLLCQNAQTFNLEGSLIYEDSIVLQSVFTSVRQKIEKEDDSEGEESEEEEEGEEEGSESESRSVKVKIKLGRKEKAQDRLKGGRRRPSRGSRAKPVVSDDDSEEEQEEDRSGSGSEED
Sequence of SMARCA2 (P51531 whole entry, the tested form may be a part): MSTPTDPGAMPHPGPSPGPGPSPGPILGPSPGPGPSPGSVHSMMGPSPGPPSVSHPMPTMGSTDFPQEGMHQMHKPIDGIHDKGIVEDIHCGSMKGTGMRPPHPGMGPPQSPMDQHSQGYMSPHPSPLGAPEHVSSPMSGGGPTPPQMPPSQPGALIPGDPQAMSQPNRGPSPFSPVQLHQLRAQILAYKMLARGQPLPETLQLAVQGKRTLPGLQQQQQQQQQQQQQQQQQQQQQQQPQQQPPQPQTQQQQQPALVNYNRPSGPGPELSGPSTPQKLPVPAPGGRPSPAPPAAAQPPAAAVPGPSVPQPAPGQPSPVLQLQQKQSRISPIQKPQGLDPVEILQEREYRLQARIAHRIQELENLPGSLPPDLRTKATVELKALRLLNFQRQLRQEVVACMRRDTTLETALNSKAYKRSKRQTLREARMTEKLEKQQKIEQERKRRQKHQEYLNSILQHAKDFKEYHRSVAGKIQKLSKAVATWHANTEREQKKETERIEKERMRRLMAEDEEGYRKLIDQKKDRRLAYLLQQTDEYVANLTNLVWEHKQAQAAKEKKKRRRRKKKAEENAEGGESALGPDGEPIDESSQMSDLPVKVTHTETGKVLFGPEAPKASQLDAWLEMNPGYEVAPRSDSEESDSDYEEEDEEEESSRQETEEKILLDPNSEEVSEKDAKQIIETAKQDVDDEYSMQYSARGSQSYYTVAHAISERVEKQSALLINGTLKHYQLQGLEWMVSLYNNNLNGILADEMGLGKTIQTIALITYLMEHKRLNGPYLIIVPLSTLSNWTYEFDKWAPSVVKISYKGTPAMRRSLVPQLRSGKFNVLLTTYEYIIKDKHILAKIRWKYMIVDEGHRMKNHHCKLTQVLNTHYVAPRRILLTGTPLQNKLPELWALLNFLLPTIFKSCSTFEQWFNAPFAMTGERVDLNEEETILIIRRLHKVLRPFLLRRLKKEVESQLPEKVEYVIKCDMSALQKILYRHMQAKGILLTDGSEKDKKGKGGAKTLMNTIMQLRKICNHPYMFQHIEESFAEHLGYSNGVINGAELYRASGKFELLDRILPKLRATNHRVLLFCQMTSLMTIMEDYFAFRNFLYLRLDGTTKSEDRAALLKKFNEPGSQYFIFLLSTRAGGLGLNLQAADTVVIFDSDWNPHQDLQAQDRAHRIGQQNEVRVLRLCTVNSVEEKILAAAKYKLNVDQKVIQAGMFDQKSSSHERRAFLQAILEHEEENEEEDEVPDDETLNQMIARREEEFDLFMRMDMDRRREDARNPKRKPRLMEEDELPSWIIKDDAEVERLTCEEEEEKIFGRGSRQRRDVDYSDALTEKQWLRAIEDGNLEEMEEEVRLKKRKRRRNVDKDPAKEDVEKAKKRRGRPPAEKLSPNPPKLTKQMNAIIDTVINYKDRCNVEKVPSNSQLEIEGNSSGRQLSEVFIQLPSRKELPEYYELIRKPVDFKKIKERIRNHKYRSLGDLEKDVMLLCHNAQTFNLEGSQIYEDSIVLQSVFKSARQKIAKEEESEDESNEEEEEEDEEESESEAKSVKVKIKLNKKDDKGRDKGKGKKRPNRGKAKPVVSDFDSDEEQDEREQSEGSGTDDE

By DC50 is commonly meant the concentration at which degradation of the target reaches its halfway point. For orientation: Dmax means the greatest extent of degradation seen. Regarding `Cc1ncsc1-c1ccc([C@H](CN2CCC(C(F)F)CC2)NC(=O)[C@@H]2C[C@@H](O)CN2C(=O)[C@@H](n2cc([C@H]3CC[C@H](CN4CCC(c5ccc6c(c5)-n5c(nc(=O)c7c(Cl)cccc75)C65CCCCC5)CC4)CC3)nn2)C(C)(C)C)cc1` [Compound A84, (2S,4R)-1-((S)-2-(4-((1r,4S)-4-((4-(4′-chloro-5′-oxo-5′H-spiro[cyclohexane-1,7′-indolo[1,2-a]quinazolin]-10′-yl)piperidin-1-yl)methyl)cyclohexyl)-1H-1,2,3-triazol-1-yl)-3,3-dimethylbutanoyl)-N—((R)-2-(4-(difluoromethyl)piperidin-1-yl)-1-(4-(4-methylthiazol-5-yl)phenyl)ethyl)-4-hydroxypyrrolidine-2-carboxamide], at SMARCA4, the half-maximal degradation concentration (DC50) was above 1000 nM and the greatest degradation seen (Dmax) was below 50%. Besides, at SMARCA2, the DC50 was in the range of 10 to 100 nM and the maximal degradation (Dmax) is above 90%.
Regarding `Cc1ncsc1-c1ccc([C@H](CN2CCN(C)CC2)NC(=O)[C@@H]2C[C@@H](O)CN2C(=O)[C@@H](n2cc([C@H]3CC[C@H](CN4CCC(c5ccc6c(c5)-n5c(nc(=O)c7c(Cl)cccc75)C65CCCCC5)CC4)CC3)nn2)C(C)(C)C)cc1` [Compound A85, (2S,4R)-1-((S)-2-(4-((1r,4S)-4-((4-(4′-chloro-5′-oxo-5′H-spiro[cyclohexane-1,7′-indolo[1,2-a]quinazolin]-10′-yl)piperidin-1-yl)methyl)cyclohexyl)-1H-1,2,3-triazol-1-yl)-3,3-dimethylbutanoyl)-4-hydroxy-N—((R)-2-(4-methylpiperazin-1-yl)-1-(4-(4-methylthiazol-5-yl)phenyl)ethyl)pyrrolidine-2-carboxamide], at SMARCA4, the DC50 fell in the range of 10 to 100 nM and the Dmax was 50 to 69%. Further, at SMARCA2, the DC50 is below 10 nM and the Dmax is above 90%.
For `COCCOC[C@H](NC(=O)[C@@H]1C[C@@H](O)CN1C(=O)[C@@H](n1cc([C@H]2CC[C@H](CN3CCC(c4ccc5c(c4)-n4c(nc(=O)c6c(Cl)cccc64)C54CCCCC4)CC3)CC2)nn1)C(C)(C)C)c1ccc(-c2scnc2C)cc1` [Compound A86, (2S,4R)-1-((S)-2-(4-((1r,4S)-4-((4-(4′-chloro-5′-oxo-5′H-spiro[cyclohexane-1,7′-indolo[1,2-a]quinazolin]-10′-yl)piperidin-1-yl)methyl)cyclohexyl)-1H-1,2,3-triazol-1-yl)-3,3-dimethylbutanoyl)-4-hydroxy-N-(®-2-(2-methoxyethoxy)-1-(4-(4-methylthiazol-5-yl)phenyl)ethyl)pyrrolidine-2-carboxamide], at SMARCA4, the DC50 was above 1000 nM and the maximal degradation (Dmax) was 50 to 69%. Besides, on SMARCA2, the DC50 is below 10 nM and the Dmax was above 90%.
Take `COCCOCCOC[C@H](NC(=O)[C@@H]1C[C@@H](O)CN1C(=O)[C@@H](n1cc([C@H]2CC[C@H](CN3CCC(c4ccc5c(c4)-n4c(nc(=O)c6c(Cl)cccc64)C54CCCCC4)CC3)CC2)nn1)C(C)(C)C)c1ccc(-c2scnc2C)cc1` [Compound A87, (2S,4R)-1-((S)-2-(4-((1r,4S)-4-((4-(4′-chloro-5′-oxo-5′H-spiro[cyclohexane-1,7′-indolo[1,2-a]quinazolin]-10′-yl)piperidin-1-yl)methyl)cyclohexyl)-1H-1,2,3-triazol-1-yl)-3,3-dimethylbutanoyl)-4-hydroxy-N-(®-2-(2-(2-methoxyethoxy)ethoxy)-1-(4-(4-methylthiazol-5-yl)phenyl)ethyl)pyrrolidine-2-carboxamide]: the figures for the DC50 at SMARCA4 and on SMARCA2 were above 1000 nM and below 10 nM, respectively. Further, the values for the maximal degradation (Dmax) on SMARCA4 and at SMARCA2 were 50 to 69% and above 90%, respectively.
With `Cc1ncsc1-c1ccc([C@H](CN2CCOCC2)NC(=O)[C@@H]2C[C@@H](O)CN2C(=O)[C@@H](n2cc([C@H]3C[C@H](CN4CC5(CCC(c6ccc7c(c6)-n6c(nc(=O)c8c(Cl)cccc86)C76CCCCC6)CC5)C4)C3)nn2)C(C)(C)C)cc1` [Compound A88, (2S,4R)-1-((S)-2-(4-((1r,3S)-3-((7-(4′-chloro-5′-oxo-5′H-spiro[cyclohexane-1,7′-indolo[1,2-a]quinazolin]-10′-yl)-2-azaspiro[3.5]nonan-2-yl)methyl)cyclobutyl)-1H-1,2,3-triazol-1-yl)-3,3-dimethylbutanoyl)-4-hydroxy-N—((R)-1-(4-(4-methylthiazol-5-yl)phenyl)-2-morpholinoethyl)pyrrolidine-2-carboxamide], the DC50 on SMARCA4 and at SMARCA2 was 10 to 100 nM each time. The Dmax on SMARCA4 was 70 to 90%; at SMARCA2, above 90%.
In the case of `Cc1ncsc1-c1ccc([C@H](C)NC(=O)[C@@H]2C[C@@H](O)CN2C(=O)[C@@H](n2cc([C@H]3CC[C@H](CN4CCC(c5ccc6c(c5)-n5c(nc(=O)c7c(Cl)cccc75)C6(C)C)CC4)CC3)nn2)C(C)(C)C)cc1` [Compound A89, (2S,4R)-1-((S)-2-(4-((1r,4S)-4-((4-(4-chloro-7,7-dimethyl-5-oxo-5,7-dihydroindolo[1,2-a]quinazolin-10-yl)piperidin-1-yl)methyl)cyclohexyl)-1H-1,2,3-triazol-1-yl)-3,3-dimethylbutanoyl)-4-hydroxy-N—((S)-1-(4-(4-methylthiazol-5-yl)phenyl)ethyl)pyrrolidine-2-carboxamide], on SMARCA4, the 50% degradation concentration (DC50) is above 1000 nM and the Dmax fell in the range of 50 to 69%. Besides, on SMARCA2, the 50% degradation concentration (DC50) was below 10 nM and the Dmax is above 90%.
In the case of `Cc1ncsc1-c1ccc([C@H](CN2CCOCC2)NC(=O)[C@@H]2C[C@@H](O)CN2C(=O)[C@@H](n2cc([C@H]3CC[C@H](CN4CCC(c5ccc6c(c5)-n5c(nc(=O)c7c(Cl)cccc75)C6(C)C)CC4)CC3)nn2)C(C)(C)C)cc1` [Compound A90], at SMARCA4, the DC50 was above 1000 nM and the maximal degradation (Dmax) is below 50%. Further, at SMARCA2, the DC50 is below 10 nM and the Dmax was above 90%.
`COCCOC[C@H](NC(=O)[C@@H]1C[C@@H](O)CN1C(=O)[C@@H](n1cc([C@H]2CC[C@H](CN3CCC(c4ccc5c(c4)-n4c(nc(=O)c6c(Cl)cccc64)C5(C)C)CC3)CC2)nn1)C(C)(C)C)c1ccc(-c2scnc2C)cc1` [Compound A91, (2S,4R)-1-((S)-2-(4-((1r,4S)-4-((4-(4-chloro-7,7-dimethyl-5-oxo-5,7-dihydroindolo[1,2-a]quinazolin-10-yl)piperidin-1-yl)methyl)cyclohexyl)-1H-1,2,3-triazol-1-yl)-3,3-dimethylbutanoyl)-4-hydroxy-N-(®-2-(2-methoxyethoxy)-1-(4-(4-methylthiazol-5-yl)phenyl)ethyl)pyrrolidine-2-carboxamide]: at SMARCA4, the DC50 was above 1000 nM and the maximal degradation (Dmax) was below 50%. Also, on SMARCA2, the half-maximal degradation concentration (DC50) was below 10 nM and the Dmax was above 90%.
Take `COCCOCCOC[C@H](NC(=O)[C@@H]1C[C@@H](O)CN1C(=O)[C@@H](n1cc([C@H]2CC[C@H](CN3CCC(c4ccc5c(c4)-n4c(nc(=O)c6c(Cl)cccc64)C5(C)C)CC3)CC2)nn1)C(C)(C)C)c1ccc(-c2scnc2C)cc1` [Compound A92]: on SMARCA4, the DC50 is above 1000 nM and the Dmax was below 50%. At SMARCA2, the DC50 is below 10 nM and the maximal degradation (Dmax) was in the range of 70 to 90%.
With `Cc1ncsc1-c1ccc([C@H](CN2CC(C)(F)C2)NC(=O)[C@@H]2C[C@@H](O)CN2C(=O)[C@@H](n2cc([C@H]3CC[C@H](CN4CCC(c5ccc6c(c5)-n5c(nc(=O)c7c(Cl)cccc75)C6(C)C)CC4)CC3)nn2)C(C)(C)C)cc1` [Compound A93, (2S,4R)-1-((S)-2-(4-((1r,4S)-4-((4-(4-chloro-7,7-dimethyl-5-oxo-5,7-dihydroindolo[1,2-a]quinazolin-10-yl)piperidin-1-yl)methyl)cyclohexyl)-1H-1,2,3-triazol-1-yl)-3,3-dimethylbutanoyl)-N—((R)-2-(3-fluoro-3-methylazetidin-1-yl)-1-(4-(4-methylthiazol-5-yl)phenyl)ethyl)-4-hydroxypyrrolidine-2-carboxamide], at SMARCA4, the DC50 was above 1000 nM and the Dmax was below 50%. Besides, at SMARCA2, the half-maximal degradation concentration (DC50) is below 10 nM and the Dmax is above 90%.
In the case of `Cc1ncsc1-c1ccc([C@H](CN2CCC(F)(F)CC2)NC(=O)[C@@H]2C[C@@H](O)CN2C(=O)[C@@H](n2cc([C@H]3CC[C@H](CN4CCC(c5ccc6c(c5)-n5c(nc(=O)c7c(Cl)cccc75)C6(C)C)CC4)CC3)nn2)C(C)(C)C)cc1` [Compound A94, (2S,4R)-1-((S)-2-(4-((1r,4S)-4-((4-(4-chloro-7,7-dimethyl-5-oxo-5,7-dihydroindolo[1,2-a]quinazolin-10-yl)piperidin-1-yl)methyl)cyclohexyl)-1H-1,2,3-triazol-1-yl)-3,3-dimethylbutanoyl)-N—((R)-2-(4,4-difluoropiperidin-1-yl)-1-(4-(4-methylthiazol-5-yl)phenyl)ethyl)-4-hydroxypyrrolidine-2-carboxamide], at SMARCA4, the half-maximal degradation concentration (DC50) was above 1000 nM and the maximal degradation (Dmax) was below 50%. Further, at SMARCA2, the DC50 was below 10 nM and the maximal degradation (Dmax) was above 90%.
